Test results reported in DBAASP.
≈ marks a conversion by molar mass, not a printed value. Values belong to the molecule of their own block, whether it stands above or below them.

How the values were obtained:
Test in all cases: ≥ marks a high value that may be exact or a test limit, other limits are often not marked, values filed in µg/mL are converted to µM
Vibrio harveyi = system: Vibrio harveyi
[1] = system: Listeria monocytogenes BCRC 14845
[2] = system: Pseudomonas aeruginosa BCRC 10944
[3] = system: Staphylococcus aureus BCRC 10780
[4] = system: Vibrio alginolyticus BCRC 12829
[5] = system: Staphylococcus xylosus BCRC 12930
[6] = system: Yersinia enterocolitica BCRC 13999
Vibrio alginolyticus = system: Vibrio alginolyticus
[7] = system: Klebsiella aerogenes BCRC 10370
[8] = system: Vibrio parahaemolyticus BCRC 10806
[9] = system: Vibrio anguillarum serotype O1
Lactococcus garvieae = system: Lactococcus garvieae
[10] = system: Streptococcus equinus BCRC 14729
Vibrio parahaemolyticus = system: Vibrio parahaemolyticus
[11] = system: Escherichia coli BCRC 10675
Streptococcus iniae = system: Streptococcus iniae
[12] = system: Enterobacter cloacae BCRC 10401
[13] = system: Staphylococcus aureus BCRC 10781
[14] = system: Klebsiella oxytoca BCRC 13985
[15] = system: Escherichia coli AX-054-1-3
[16] = system: Escherichia coli O26:H11 3
[17] = system: Escherichia coli 0112 EIEC26
Escherichia coli = system: Escherichia coli
[18] = system: Escherichia coli 0164 EIEC6
[19] = system: Enterobacter cloacae NHTCC 53001
[20] = system: Escherichia coli O26:H- CB6418
[21] = system: Escherichia coli O157:H7 CB6392
[22] = system: Klebsiella pneumoniae KK3 9904
[23] = system: Escherichia coli O157:H7 282
Staphylococcus aureus = system: Staphylococcus aureus
[24] = system: Escherichia coli AX-109-2-3
[25] = system: Escherichia coli ATCC 35218
[26] = system: Escherichia coli O157:H7 734/94
[27] = system: Escherichia coli 0152 EIEC1
[28] = system: Escherichia coli O6:K15:H31 536
[29] = system: Escherichia coli 0143 EIEC7
Escherichia coli U7794 = system: Escherichia coli U7794
[30] = system: Pseudomonas aeruginosa ATCC 27853
[31] = system: Escherichia coli 0112 EIEC27
Candida albicans = system: Candida albicans
[32] = system: Enterococcus faecalis ATCC 29212
[33] = system: Staphylococcus aureus NCTC 8325
[34] = system: Proteus mirabilis ATCC 25933
[35] = system: Escherichia coli AX-100-3-1
Escherichia coli U7103 = system: Escherichia coli U7103
[36] = system: Staphylococcus epidermidis RP62A
[37] = system: Escherichia coli ATCC 25922
[38] = system: Escherichia coli O157:H7 30328
[39] = system: Escherichia coli AX-128-3-3
[40] = system: Staphylococcus aureus ATCC 6538
[41] = system: Escherichia coli ATCC 2592
[42] = system: Staphylococcus epidermidis ATCC 12228
[43] = system: Pseudomonas aeruginosa ATCC 9027
[44] = system: Corynebacterium diphtheriae ATCC 8024
[45] = system: Shigella flexneri ATCC 203
[46] = system: Micrococcus luteus ATCC 9341
[47] = system: Candida albicans ATCC 36232
[48] = system: Bacillus subtilis ATCC 6633

MIC (Vibrio harveyi): 1.68 µM (≈ 4 µg/mL) | MIC [1]: 6.7 µM (≈ 16 µg/mL) | MIC [2]: 6.7 µM (≈ 16 µg/mL) | MIC [3]: 6.7 µM (≈ 16 µg/mL) | MIC [4]: 26.8 µM (≈ 64 µg/mL) | MIC [5]: 6.7 µM (≈ 16 µg/mL) | MIC [6]: 13.4 µM (≈ 32 µg/mL) | MIC (Vibrio alginolyticus): 3.35 µM (≈ 8 µg/mL) | MIC [7]: 6.7 µM (≈ 16 µg/mL) | MIC [9]: 6.7 µM (≈ 16 µg/mL) | MIC (Lactococcus garvieae): 26.8 µM (≈ 64 µg/mL) | MIC [10]: ≥ 53.6 µM | MIC [11]: 3.35 µM (≈ 8 µg/mL) | MIC (Streptococcus iniae): 26.8 µM (≈ 64 µg/mL) | MIC [12]: 3.35 µM (≈ 8 µg/mL) | MIC [13]: 6.7 µM (≈ 16 µg/mL) | MIC [14]: 26.8 µM (≈ 64 µg/mL)
Compound: CC[C@H](C)[C@H](NC(=O)[C@@H](NC(=O)[C@H](Cc1ccccc1)NC(=O)[C@H](Cc1ccc(O)cc1)NC(=O)[C@H](CCCCN)NC(=O)[C@H](CCCCN)NC(=O)[C@H](CC(C)C)NC(=O)[C@H](C)NC(=O)[C@H](CC(N)=O)NC(=O)[C@H](C)NC(=O)CN)[C@@H](C)O)C(=O)N[C@@H](CC(C)C)C(=O)N[C@@H](CCCCN)C(=O)N[C@@H](CCCCN)C(=O)N[C@@H](Cc1ccccc1)C(=O)N[C@@H](Cc1ccccc1)C(=O)N[C@@H](CCCCN)C(=O)N[C@@H](CC(C)C)C(=O)N[C@@H](C)C(=O)N[C@@H](Cc1c[nH]c2ccccc12)C(=O)O [GANALKKYFTILKKFFKLAW]
MIC [8]: 3.35 µM (≈ 8 µg/mL) | MIC (Vibrio parahaemolyticus): 6.7 µM (≈ 16 µg/mL)

MIC [15]: 10 µM (≈ 26.7 µg/mL) | MIC [16]: 2.5 µM (≈ 6.66 µg/mL) | MIC [17]: 5 µM (≈ 13.3 µg/mL) | MIC (Escherichia coli): 5 µM (≈ 13.3 µg/mL) | MIC [18]: 5 µM (≈ 13.3 µg/mL) | MIC [19]: 10 µM (≈ 26.7 µg/mL) | MIC [20]: 5 µM (≈ 13.3 µg/mL) | MIC [21]: 5 µM (≈ 13.3 µg/mL) | MIC [22]: 10 µM (≈ 26.7 µg/mL) | MIC [23]: 2.5 µM (≈ 6.66 µg/mL) | MIC (Staphylococcus aureus): 10 µM (≈ 26.7 µg/mL) | MIC [24]: 5 µM (≈ 13.3 µg/mL) | MIC [25]: 5 µM (≈ 13.3 µg/mL) | MIC [26]: 5 µM (≈ 13.3 µg/mL) | MIC [27]: 5 µM (≈ 13.3 µg/mL) | MIC [28]: 2.5 µM (≈ 6.66 µg/mL) | MIC [29]: 5 µM (≈ 13.3 µg/mL) | MIC (Escherichia coli U7794): 5 µM (≈ 13.3 µg/mL) | MIC [30]: 10 µM (≈ 26.7 µg/mL) | MIC [31]: 5 µM (≈ 13.3 µg/mL) | MIC (Candida albicans): 20 µM (≈ 53.3 µg/mL) | MIC [32]: 20 µM (≈ 53.3 µg/mL) | MIC [33]: 10 µM (≈ 26.7 µg/mL) | MIC [34]: ≥ 100 µM | MIC [35]: 5 µM (≈ 13.3 µg/mL) | MIC (Escherichia coli U7103): 2.5 µM (≈ 6.66 µg/mL) | MIC [36]: 10 µM (≈ 26.7 µg/mL) | MIC [37]: 10 µM (≈ 26.7 µg/mL) | MIC [38]: 5 µM (≈ 13.3 µg/mL) | MIC [39]: 5 µM (≈ 13.3 µg/mL)
Compound: CC[C@H](C)[C@H](NC(=O)[C@H](CCCCN)NC(=O)[C@H](CS)NC(=O)[C@H](C)NC(=O)[C@@H](NC(=O)[C@H](Cc1ccccc1)NC(=O)CNC(=O)[C@H](CC(C)C)NC(=O)CNC(=O)[C@@H](NC(=O)[C@H](CCCCN)NC(=O)CNC(=O)[C@H](CC(C)C)NC(=O)[C@H](CCCCN)NC(=O)[C@H](CCCCN)NC(=O)[C@H](CC(C)C)NC(=O)[C@@H](NC(=O)[C@H](CO)NC(=O)[C@H](CC(C)C)NC(=O)[C@H](CCSC)NC(=O)[C@@H](N)CO)C(C)C)C(C)C)C(C)C)C(=O)N[C@@H](CC(N)=O)C(=O)N[C@@H](CCCCN)C(=O)N[C@@H](CCC(N)=O)C(=O)N[C@@H](CS)C(=O)O [SMLSVLKKLGKVGLGFVACKINKQC]

MIC [40]: 23.1 µM (≈ 30 µg/mL) | MIC [41]: 11.5 µM (≈ 15 µg/mL) | MIC [42]: 11.5 µM (≈ 15 µg/mL) | MIC (Staphylococcus aureus): > 76.9 µM | MIC [43]: 38.4 µM (≈ 50 µg/mL) | MIC [44]: 5.77 µM (≈ 7.49 µg/mL) | MIC [45]: 11.5 µM (≈ 15 µg/mL) | MIC [46]: 23.1 µM (≈ 30 µg/mL) | MIC [47]: 11.5 µM (≈ 15 µg/mL) | MIC [48]: 11.5 µM (≈ 15 µg/mL)
Compound: CC(C)[C@H](NC(=O)[C@H](CS)NC(=O)[C@@H](NC(=O)[C@H](CCCN=C(N)N)NC(=O)[C@H](CCCCN)NC(=O)CNC(=O)[C@H](CC(N)=O)NC(=O)[C@H](CS)NC(=O)[C@@H](N)Cc1ccc(O)cc1)C(C)C)C(=O)N[C@@H](CS)C(=O)N[C@@H](CCCN=C(N)N)C(N)=O [YCNGKRVCVCR]
